The values below come from US20160122315A1, “CRYSTALLINE IMATINIB MESYLATE PROCESS” (SHILPA MEDICARE LIMITED, priority 2013, published 2016).

Data set [1] in a line: Hygroscopicity of crystalline Form-SA. Format: physicochemical. The note with it: crystalline solid.
The conditions of data set [2]: crystal forms disclosed by Zimmermann et al, U.S.'051; cited from earlier work.
The conditions of data set [3]: compared with the α-crystal form; disclosed in U.S.'051; cited from earlier work.

Where two headings read alike, the source gives them in different places.

Consider `Cc1ccc(NC(=O)c2ccc(CN3CCN(C)CC3)cc2)cc1Nc1nccc(-c2cccnc2)n1` [Form-SA, 4-[(4-Methyl-1-piperazinyl)methyl]-N-[4-methyl-3-[[4-(3-pyridinyl)-2-pyrimidinyl]amino]-phenyl]benzamide methanesulfonate], for which, in data set [1], the hygroscopicity result was “non-hygroscopic”. For `CS(=O)(=O)O.Cc1ccc(NC(=O)c2ccc(CN3CCN(C)CC3)cc2)cc1Nc1nccc(-c2cccnc2)n1` [a-crystal form], the hygroscopicity entry in data set [2] was “hygroscopic”.

As to `CS(=O)(=O)O.Cc1ccc(NC(=O)c2ccc(CN3CCN(C)CC3)cc2)cc1Nc1nccc(-c2cccnc2)n1` [β-crystal form], in data set [2], the hygroscopicity result is “less hygroscopic than the α-crystal form”. In data set [3], the thermodynamic stability result is “thermodynamically more stable at temperatures below 140 °C”.
